Results on one compound are retold here after patent US8183283B2, “Dendrite elongation inhibitor for melanocyte and skin preparation for external use containing the same” (Pola Chemical Industries Inc., priority 2002, dated 2012).

The experiment deals with Normal human melanocyte. Nature of the experiment: Inhibitory action on the elongation of dendrites using human melanocytes. In kind it is cell-based. An excerpt: According to a method shown below, inhibitory action on the elongation of dendrites was examined using human melanocytes. (Reagent, etc.) Cells, basal media, and amplification additives were purchased from KURABO INDUSTRIES LTD.
(Cell) Normal human melanocyte
(Medium) Basal medium (Medium 1545) supplemented with reagents described below
(Reagent) Amplification additive: bovine pituitary extract (BPE) (final concentration of 0.4% v/v in the medium), fetal bovine serum (FBS) (final concentration of 0.5% v/v in the medium), human recombinant basic fibroblast growth factor (rFGF-B) (final concentration of 3 ng/ml in the medium), hydrocortisone (final concentration of 0.18 μg/ml in the medium), insulin (final concentration 5 μg/ml in the medium), transferrin (final concentration of 5 μg/ml in the medium), phorbol 12-myristate 13-acetate (PMA) (final concentration of 10 ng/ml in the medium), heparin (final concentration of 3 μg/ml in the medium), and PSA solution (mixture solution of penicillin concentration of 50,000 Unit/ml, streptomycin concentration of 50 μg/ml, and amphotericin B concentration of 12.5 μg/ml; 1-ml addition with respect to 500 ml of the medium) (Method) […]

As to `COc1ccc(-c2oc3cc(O)c(OC)c(O)c3c(=O)c2OC)cc1O` [Centaureidin, 5,7-dihydroxy-3,6-dimethoxy-2-(5-hydroxy-4-methoxyphenyl)-4H-1-benzopyran-4-on], the “Inhibition against the elongation of dendrites (in words)” value (24 hours after addition of the sample solution, versus control) is “elongation is inhibited”. The Length of dendrite (sample solution with 100 μg/ml Centaureidin, 50 μl added to 200 μl medium, observed 24 hours after addition, growth factor-supplemented medium) is 26 ± 8 μm.
